{"source": "ChEMBL document CHEMBL5303765", "about": "“Data for DCP probe BAY-7081” (2023)", "key": {"[1]": {"biological_target": "5-hydroxytryptamine receptor 1B (Homo sapiens) (UniProt P28222)", "sequence (P28222 whole entry)": "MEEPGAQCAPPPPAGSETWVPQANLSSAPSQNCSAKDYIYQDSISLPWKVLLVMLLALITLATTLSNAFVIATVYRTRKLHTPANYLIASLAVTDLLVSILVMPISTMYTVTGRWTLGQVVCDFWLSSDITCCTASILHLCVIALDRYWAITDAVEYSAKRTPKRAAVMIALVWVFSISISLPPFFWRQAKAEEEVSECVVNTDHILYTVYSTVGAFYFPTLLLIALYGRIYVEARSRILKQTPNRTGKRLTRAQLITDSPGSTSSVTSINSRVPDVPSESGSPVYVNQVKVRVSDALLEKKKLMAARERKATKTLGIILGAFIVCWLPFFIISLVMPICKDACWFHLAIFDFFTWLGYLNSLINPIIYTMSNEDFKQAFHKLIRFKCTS", "details": "Compound concentration 10.0 uM"}, "[2]": {"biological_target": "T1, Serine/threonine-protein kinase 4 (Homo sapiens) (UniProt Q13043)", "T1 sequence (whole entry)": "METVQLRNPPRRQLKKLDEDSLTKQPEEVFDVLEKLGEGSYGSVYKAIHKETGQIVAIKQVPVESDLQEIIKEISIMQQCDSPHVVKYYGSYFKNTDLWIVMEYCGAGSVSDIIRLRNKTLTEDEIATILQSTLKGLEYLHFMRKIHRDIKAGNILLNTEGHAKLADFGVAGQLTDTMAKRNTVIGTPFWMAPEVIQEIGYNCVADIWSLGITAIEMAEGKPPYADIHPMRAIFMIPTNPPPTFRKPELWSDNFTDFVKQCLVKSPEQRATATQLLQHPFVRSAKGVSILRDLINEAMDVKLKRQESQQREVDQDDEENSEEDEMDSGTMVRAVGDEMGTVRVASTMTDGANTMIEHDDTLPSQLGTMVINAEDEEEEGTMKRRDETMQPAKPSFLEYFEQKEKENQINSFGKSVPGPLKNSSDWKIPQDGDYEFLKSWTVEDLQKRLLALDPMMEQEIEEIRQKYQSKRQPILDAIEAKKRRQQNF", "assay": "STK4 SGC Tm panel (DSF)", "details": "for ΔTm: Compound concentration 10.0 uM"}, "[3]": {"biological_target": "Beta-2 adrenergic receptor (Homo sapiens) (UniProt P07550)", "sequence (P07550 whole entry, looked up)": "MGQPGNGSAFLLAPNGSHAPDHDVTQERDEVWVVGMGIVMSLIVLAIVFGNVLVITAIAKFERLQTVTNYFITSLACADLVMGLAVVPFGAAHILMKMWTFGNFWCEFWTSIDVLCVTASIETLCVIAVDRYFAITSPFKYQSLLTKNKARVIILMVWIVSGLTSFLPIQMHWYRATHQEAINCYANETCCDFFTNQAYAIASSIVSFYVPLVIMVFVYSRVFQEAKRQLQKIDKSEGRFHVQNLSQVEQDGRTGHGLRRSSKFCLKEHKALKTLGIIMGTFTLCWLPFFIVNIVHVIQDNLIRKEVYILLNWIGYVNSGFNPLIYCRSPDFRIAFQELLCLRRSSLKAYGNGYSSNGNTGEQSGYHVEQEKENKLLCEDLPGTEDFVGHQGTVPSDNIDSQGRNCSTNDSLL", "details": "Compound concentration 10.0 uM"}, "[4]": {"biological_target": "T2, Ferrochelatase, mitochondrial (Homo sapiens) (UniProt P22830)", "T2 sequence (whole entry)": "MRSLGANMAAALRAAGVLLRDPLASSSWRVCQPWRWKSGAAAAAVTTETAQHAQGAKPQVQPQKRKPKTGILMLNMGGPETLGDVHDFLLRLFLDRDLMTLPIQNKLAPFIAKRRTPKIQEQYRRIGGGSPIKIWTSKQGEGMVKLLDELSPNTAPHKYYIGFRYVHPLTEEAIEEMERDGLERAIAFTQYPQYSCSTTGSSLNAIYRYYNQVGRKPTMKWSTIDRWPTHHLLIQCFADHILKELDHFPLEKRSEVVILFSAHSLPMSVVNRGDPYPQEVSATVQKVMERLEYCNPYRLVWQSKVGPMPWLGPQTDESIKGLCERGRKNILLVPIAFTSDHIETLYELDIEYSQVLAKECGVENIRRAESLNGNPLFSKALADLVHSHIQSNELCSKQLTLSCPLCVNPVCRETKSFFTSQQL", "assay": "FECHHS SGC Tm panel (DSF)", "details": "for ΔTm: Compound concentration 10.0 uM"}, "[5]": {"biological_target": "T3, Bone morphogenetic protein receptor type-2 (Homo sapiens) (UniProt Q13873)", "T3 sequence (whole entry)": "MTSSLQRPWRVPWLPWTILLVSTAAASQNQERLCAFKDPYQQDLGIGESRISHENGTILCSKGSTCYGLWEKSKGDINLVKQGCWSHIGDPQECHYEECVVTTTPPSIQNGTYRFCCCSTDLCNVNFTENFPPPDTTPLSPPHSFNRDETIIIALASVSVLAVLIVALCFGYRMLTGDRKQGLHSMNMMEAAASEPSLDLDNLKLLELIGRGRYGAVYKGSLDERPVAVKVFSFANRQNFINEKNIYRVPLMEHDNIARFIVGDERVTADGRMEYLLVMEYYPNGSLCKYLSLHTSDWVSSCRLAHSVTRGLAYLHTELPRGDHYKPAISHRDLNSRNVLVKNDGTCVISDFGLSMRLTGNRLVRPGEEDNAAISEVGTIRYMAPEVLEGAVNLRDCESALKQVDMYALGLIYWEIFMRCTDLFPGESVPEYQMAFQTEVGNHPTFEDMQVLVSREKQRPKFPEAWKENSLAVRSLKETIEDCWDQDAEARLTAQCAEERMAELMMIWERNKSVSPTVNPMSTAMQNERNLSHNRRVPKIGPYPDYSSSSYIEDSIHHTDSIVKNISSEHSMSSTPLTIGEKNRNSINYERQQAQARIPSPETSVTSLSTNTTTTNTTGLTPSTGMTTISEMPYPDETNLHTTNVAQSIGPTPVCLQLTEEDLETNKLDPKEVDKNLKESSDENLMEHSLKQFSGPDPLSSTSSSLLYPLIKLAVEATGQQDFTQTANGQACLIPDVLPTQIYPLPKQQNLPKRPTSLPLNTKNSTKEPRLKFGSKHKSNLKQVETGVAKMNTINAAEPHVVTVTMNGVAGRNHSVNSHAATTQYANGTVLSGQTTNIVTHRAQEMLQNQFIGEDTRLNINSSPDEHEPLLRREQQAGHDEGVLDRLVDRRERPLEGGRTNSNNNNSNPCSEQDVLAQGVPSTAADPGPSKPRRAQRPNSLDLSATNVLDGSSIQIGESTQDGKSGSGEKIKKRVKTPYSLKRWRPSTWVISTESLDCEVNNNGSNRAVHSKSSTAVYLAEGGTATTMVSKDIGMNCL", "assay": "BMPR2 SGC Tm panel (DSF)", "details": "for ΔTm: Compound concentration 10.0 uM"}, "[6]": {"biological_target": "Ephrin type-A receptor 4 (Homo sapiens) (UniProt P54764)", "assay": "EPHA4 SGC Tm panel (DSF)", "details": "for ΔTm: Compound concentration 10.0 uM"}, "[7]": {"biological_target": "Calcium/calmodulin-dependent protein kinase type 1G (Homo sapiens) (UniProt Q96NX5)", "sequence (Q96NX5 whole entry)": "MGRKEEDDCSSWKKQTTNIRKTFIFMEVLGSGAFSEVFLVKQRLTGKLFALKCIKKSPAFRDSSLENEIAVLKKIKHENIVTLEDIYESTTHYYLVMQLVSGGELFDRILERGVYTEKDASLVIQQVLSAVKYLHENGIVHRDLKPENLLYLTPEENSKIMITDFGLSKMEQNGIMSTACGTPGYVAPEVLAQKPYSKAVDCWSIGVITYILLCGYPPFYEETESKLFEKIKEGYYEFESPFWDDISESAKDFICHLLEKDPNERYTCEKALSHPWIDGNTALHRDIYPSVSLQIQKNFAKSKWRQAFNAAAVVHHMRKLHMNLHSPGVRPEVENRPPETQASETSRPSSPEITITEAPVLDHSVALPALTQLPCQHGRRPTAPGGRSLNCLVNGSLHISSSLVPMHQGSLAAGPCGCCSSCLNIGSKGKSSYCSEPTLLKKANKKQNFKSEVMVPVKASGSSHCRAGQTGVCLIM", "assay": "CAMK1G SGC Tm panel (DSF)", "details": "for ΔTm: Compound concentration 10.0 uM"}, "[8]": {"biological_target": "Mitogen-activated protein kinase 1 (Homo sapiens) (UniProt P28482)", "sequence (P28482 whole entry)": "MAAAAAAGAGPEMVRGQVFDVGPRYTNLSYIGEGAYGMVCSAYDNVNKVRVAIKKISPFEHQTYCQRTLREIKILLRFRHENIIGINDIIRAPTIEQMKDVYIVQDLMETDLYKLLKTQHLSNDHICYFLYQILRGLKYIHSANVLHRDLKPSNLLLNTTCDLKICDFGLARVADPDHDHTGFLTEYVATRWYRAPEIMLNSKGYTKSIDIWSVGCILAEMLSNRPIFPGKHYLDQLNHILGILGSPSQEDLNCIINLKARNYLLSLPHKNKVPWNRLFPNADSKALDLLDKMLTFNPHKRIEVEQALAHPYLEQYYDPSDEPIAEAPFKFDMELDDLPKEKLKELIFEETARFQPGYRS", "assay": "MAPK1 SGC Tm panel (DSF)", "details": "for ΔTm: Compound concentration 10.0 uM"}, "[9]": {"biological_target": "Beta-3 adrenergic receptor (Homo sapiens) (UniProt P13945)", "sequence (P13945 whole entry, looked up)": "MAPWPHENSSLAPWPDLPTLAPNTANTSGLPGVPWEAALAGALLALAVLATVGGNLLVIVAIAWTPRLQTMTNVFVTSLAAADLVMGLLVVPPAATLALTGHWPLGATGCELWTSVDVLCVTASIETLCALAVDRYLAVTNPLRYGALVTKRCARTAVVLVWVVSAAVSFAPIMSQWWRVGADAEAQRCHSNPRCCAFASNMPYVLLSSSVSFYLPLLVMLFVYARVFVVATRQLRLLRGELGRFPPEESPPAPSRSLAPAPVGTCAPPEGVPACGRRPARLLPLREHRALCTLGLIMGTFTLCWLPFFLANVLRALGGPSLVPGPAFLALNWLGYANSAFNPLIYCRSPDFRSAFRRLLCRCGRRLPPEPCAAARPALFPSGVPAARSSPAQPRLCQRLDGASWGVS", "details": "Compound concentration 10.0 uM"}, "[10]": {"biological_target": "Histamine H2 receptor (Homo sapiens) (UniProt P25021)", "sequence (P25021 whole entry)": "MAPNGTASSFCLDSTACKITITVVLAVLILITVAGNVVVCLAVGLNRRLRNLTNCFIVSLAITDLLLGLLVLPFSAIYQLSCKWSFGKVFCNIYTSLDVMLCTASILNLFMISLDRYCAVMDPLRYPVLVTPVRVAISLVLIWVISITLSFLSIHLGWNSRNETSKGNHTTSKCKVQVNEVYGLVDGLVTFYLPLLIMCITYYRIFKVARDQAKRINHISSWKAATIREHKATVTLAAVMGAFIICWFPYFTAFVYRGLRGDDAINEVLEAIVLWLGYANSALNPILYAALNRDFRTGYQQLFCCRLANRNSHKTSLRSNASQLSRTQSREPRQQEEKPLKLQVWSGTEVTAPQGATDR", "details": "Compound concentration 10.0 uM"}, "[11]": {"biological_target": "BMP-2-inducible protein kinase (Homo sapiens) (UniProt Q9NSY1)", "sequence (Q9NSY1 whole entry, looked up)": "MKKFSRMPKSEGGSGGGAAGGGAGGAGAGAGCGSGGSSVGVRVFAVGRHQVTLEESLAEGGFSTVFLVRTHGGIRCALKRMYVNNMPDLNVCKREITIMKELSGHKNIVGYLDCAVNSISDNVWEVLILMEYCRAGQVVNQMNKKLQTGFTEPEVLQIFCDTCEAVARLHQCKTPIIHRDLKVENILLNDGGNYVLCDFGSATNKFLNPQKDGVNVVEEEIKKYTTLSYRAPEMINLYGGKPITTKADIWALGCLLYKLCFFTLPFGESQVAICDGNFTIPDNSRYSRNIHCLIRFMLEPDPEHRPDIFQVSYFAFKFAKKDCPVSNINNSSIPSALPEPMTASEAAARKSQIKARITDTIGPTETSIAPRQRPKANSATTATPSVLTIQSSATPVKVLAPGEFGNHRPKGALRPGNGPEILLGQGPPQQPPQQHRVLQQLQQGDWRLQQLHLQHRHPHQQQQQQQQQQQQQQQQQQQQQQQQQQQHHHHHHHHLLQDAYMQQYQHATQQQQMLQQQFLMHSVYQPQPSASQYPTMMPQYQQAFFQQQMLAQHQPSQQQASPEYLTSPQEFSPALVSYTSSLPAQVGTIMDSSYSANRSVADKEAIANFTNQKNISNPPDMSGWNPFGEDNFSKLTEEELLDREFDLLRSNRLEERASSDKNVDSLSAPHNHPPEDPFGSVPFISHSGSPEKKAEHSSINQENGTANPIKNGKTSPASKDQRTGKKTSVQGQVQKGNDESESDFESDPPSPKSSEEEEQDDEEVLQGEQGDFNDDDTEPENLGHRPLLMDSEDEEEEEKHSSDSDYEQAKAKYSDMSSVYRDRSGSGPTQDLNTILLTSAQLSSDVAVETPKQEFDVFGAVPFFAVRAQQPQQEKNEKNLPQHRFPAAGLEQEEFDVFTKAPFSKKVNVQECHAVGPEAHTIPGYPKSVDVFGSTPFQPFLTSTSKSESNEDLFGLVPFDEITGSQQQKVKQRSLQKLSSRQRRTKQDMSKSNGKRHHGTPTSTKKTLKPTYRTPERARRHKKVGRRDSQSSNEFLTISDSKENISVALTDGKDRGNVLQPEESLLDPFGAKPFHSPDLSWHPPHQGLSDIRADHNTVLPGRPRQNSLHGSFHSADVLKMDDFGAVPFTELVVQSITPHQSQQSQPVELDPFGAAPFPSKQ", "assay": "BMP2K SGC Tm panel (DSF)", "details": "for ΔTm: Compound concentration 10.0 uM"}, "[12]": {"biological_target": "Ephrin type-A receptor 2 (Homo sapiens) (UniProt P29317)", "sequence (P29317 whole entry)": "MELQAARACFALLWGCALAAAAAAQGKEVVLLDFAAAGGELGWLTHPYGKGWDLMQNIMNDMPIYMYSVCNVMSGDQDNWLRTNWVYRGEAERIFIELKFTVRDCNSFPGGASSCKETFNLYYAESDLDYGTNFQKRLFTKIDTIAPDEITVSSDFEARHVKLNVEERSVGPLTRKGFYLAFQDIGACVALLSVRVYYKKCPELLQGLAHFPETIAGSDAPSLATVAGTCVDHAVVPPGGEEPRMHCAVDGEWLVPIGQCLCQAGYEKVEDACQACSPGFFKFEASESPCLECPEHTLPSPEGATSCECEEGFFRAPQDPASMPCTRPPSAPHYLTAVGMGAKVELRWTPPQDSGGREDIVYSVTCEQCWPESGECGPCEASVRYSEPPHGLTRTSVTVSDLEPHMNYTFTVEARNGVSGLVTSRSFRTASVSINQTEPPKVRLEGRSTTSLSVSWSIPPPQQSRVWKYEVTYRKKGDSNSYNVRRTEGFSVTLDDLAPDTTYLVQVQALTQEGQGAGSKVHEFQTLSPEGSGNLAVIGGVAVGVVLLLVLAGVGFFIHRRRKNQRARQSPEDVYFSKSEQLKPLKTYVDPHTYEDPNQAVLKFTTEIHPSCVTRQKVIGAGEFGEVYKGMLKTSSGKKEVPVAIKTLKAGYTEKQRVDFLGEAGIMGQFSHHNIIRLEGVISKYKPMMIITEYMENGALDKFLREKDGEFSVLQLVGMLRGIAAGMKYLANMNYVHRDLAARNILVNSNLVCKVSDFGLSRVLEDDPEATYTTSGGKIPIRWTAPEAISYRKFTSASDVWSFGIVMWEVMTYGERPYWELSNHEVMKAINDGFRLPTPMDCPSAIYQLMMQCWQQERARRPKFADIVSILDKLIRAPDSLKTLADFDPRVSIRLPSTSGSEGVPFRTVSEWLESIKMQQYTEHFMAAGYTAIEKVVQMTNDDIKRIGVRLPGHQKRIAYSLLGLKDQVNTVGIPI", "assay": "EPHA2 SGC Tm panel (DSF)", "details": "for ΔTm: Compound concentration 10.0 uM"}}}
{"smiles": "CCC[C@H]1CNCc2c1[nH]c(=O)c(C#N)c2N1CCC2(CC1)CC2", "values": [{"measurement": "inhibition", "setting": "[1]", "value": -6.99, "unit": "%"}, {"measurement": "delta Tm Staurosporine positive control", "setting": "[2]", "value": 16.2}, {"measurement": "ΔTm", "setting": "[2]", "value": -0.568}, {"measurement": "inhibition", "setting": "[3]", "value": -6.31, "unit": "%"}, {"measurement": "delta Tm Staurosporine positive control", "setting": "[4]", "value": 2.89}, {"measurement": "ΔTm", "setting": "[4]", "value": -1.08}, {"measurement": "delta Tm Staurosporine positive control", "setting": "[5]", "value": 3.02}, {"measurement": "ΔTm", "setting": "[5]", "value": 0.146}, {"measurement": "delta Tm Staurosporine positive control", "setting": "[6]", "value": 6.68}, {"measurement": "ΔTm", "setting": "[6]", "value": -0.324}, {"measurement": "delta Tm Staurosporine positive control", "setting": "[7]", "value": 11.2}, {"measurement": "ΔTm", "setting": "[7]", "value": -0.348}, {"measurement": "delta Tm Staurosporine positive control", "setting": "[8]", "value": 3.56}, {"measurement": "ΔTm", "setting": "[8]", "value": -0.182}, {"measurement": "inhibition", "setting": "[9]", "value": 3.76, "unit": "%"}, {"measurement": "inhibition", "setting": "[10]", "value": 32.7, "unit": "%"}, {"measurement": "delta Tm Staurosporine positive control", "setting": "[11]", "value": 18.7}, {"measurement": "ΔTm", "setting": "[11]", "value": -0.103}, {"measurement": "delta Tm Staurosporine positive control", "setting": "[12]", "value": 7.41}, {"measurement": "ΔTm", "setting": "[12]", "value": -0.621}]}
{"smiles": "CCC[C@@H]1CNCc2c1[nH]c(=O)c(C#N)c2N1CCC2(CC1)CC2", "values": [{"measurement": "inhibition", "setting": "[1]", "value": 2.21, "unit": "%"}, {"measurement": "delta Tm Staurosporine positive control", "setting": "[2]", "value": 16.2}, {"measurement": "ΔTm", "setting": "[2]", "value": -0.519}, {"measurement": "inhibition", "setting": "[3]", "value": -6.78, "unit": "%"}, {"measurement": "delta Tm Staurosporine positive control", "setting": "[4]", "value": 2.89}, {"measurement": "ΔTm", "setting": "[4]", "value": -1.34}, {"measurement": "delta Tm Staurosporine positive control", "setting": "[5]", "value": 3.02}, {"measurement": "ΔTm", "setting": "[5]", "value": 0.0735}, {"measurement": "delta Tm Staurosporine positive control", "setting": "[6]", "value": 6.68}, {"measurement": "ΔTm", "setting": "[6]", "value": -0.295}, {"measurement": "delta Tm Staurosporine positive control", "setting": "[7]", "value": 11.2}, {"measurement": "ΔTm", "setting": "[7]", "value": -0.416}, {"measurement": "delta Tm Staurosporine positive control", "setting": "[8]", "value": 3.56}, {"measurement": "ΔTm", "setting": "[8]", "value": -0.19}, {"measurement": "inhibition", "setting": "[9]", "value": -3.17, "unit": "%"}, {"measurement": "inhibition", "setting": "[10]", "value": 25.3, "unit": "%"}, {"measurement": "delta Tm Staurosporine positive control", "setting": "[11]", "value": 18.7}, {"measurement": "ΔTm", "setting": "[11]", "value": -0.192}, {"measurement": "delta Tm Staurosporine positive control", "setting": "[12]", "value": 7.41}, {"measurement": "ΔTm", "setting": "[12]", "value": -0.623}]}
